Results from patent US7989464B2, “mGluR1 antagonists as therapeutic agents” (Schering Corporation, priority 2004, dated 2011).
Like-named read-outs stand apart in the source and are kept apart here.

Molecular target: T1, hmGluR1 receptor (Homo sapiens, UniProt Q13255)
T1 construct: expressed in transfected cells
Experiment: IC50 determination: intracellular calcium mobilization (FLIPR) upon Quisqualate stimulation in CHO cells stably expressing hmGluR1
Format: cell-based
Conditions: against Quisqualate 1 μM (EC80)
Summary of the method: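 CHO cells stably expressing hmGluR1 were kept overnight in DMEM high glucose with GPT and 1 mM pyruvate, then loaded 2 h with Calcium 3 dye.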

[1] = class symbols, read-out: mGIuR 1 IC50
[2] = FLIPR calcium mobilization, read-out: IC50 Class
[3] = FLIPR calcium mobilization, read-out: mGluR1 IC50

T1 sequence (Q13255 19-1194): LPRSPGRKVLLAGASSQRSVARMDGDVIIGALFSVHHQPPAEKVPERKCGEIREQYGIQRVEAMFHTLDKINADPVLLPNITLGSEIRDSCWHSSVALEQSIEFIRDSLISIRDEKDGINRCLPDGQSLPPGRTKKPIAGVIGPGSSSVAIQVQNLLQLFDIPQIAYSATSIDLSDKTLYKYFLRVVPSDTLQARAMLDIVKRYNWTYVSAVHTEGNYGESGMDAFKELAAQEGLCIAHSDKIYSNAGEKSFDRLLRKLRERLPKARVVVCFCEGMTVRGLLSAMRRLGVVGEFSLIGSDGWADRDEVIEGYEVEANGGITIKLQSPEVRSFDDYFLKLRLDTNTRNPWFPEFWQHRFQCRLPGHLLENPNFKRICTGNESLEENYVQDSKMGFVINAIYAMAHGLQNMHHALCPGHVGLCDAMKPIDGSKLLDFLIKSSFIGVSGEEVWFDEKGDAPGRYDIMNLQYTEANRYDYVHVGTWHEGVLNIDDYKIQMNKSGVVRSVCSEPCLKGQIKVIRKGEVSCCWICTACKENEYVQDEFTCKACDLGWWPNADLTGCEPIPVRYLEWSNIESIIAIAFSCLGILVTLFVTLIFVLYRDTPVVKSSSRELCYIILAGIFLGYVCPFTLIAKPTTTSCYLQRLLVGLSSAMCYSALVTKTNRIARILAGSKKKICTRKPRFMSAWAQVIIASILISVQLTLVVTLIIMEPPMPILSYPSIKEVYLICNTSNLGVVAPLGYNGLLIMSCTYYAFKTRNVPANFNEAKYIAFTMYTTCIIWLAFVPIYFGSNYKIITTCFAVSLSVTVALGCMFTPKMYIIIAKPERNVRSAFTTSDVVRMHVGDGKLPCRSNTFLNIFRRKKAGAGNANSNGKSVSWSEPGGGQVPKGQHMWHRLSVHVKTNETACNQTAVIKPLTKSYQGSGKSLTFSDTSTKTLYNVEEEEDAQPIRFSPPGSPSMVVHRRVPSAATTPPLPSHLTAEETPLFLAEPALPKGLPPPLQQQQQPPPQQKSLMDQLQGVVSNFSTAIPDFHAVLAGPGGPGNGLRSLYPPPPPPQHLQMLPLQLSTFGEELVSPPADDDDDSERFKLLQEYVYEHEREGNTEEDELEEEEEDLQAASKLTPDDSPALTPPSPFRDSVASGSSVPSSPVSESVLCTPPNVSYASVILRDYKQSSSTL

Compound	IC50 [1] [nM]	IC50 [2] [nM]	also measured
Cc1cc(N(C)C)c2c(n1)sc1c(=O)n(-c3ccccc3)cnc12 [7DB]	< 50		
COc1ccnc2sc3c(=O)n(-c4ccc5scnc5c4)cnc3c12 [25D]	150 to 1000		
COc1ccc(-n2cnc3c(sc4nc(N)cc(NC5CC5)c43)c2=O)cc1 [59G]		< 50	
COc1ccnc2sc3c(=O)n(-c4ccc(Cl)cc4C)cnc3c12 [28FU]		> 1000	
COCCNc1ccnc2sc3c(=O)n(-c4ccc(OC)cc4)cnc3c12 [28DC]		< 50	
Cc1ccc(-n2cnc3c(sc4nccc(NC[C@@H](C)O)c43)c2=O)cc1 [29A]	150 to 1000		
CCCNc1ccnc2sc3c(=O)n(-c4ccc(C)cc4)cnc3c12 [28AS]	< 50		
CCNc1ccnc2sc3c(=O)n(-c4cccc(Br)c4)cnc3c12 [28CR]		50 to 150	
CN(C)c1c(Br)cnc2sc3c(=O)n(C4CCCCC4)cnc3c12 [compound 43]	150 to 1000		
C=Cc1ccnc2sc3c(=O)n(-c4ccc(Cl)cc4)cnc3c12 [29E]		< 50	
CN(C)c1ccnc2sc3c(=O)n(-c4ccc(C(C)(C)C)cc4)cnc3c12 [7BB]	> 1000		
CN(C)c1ccnc2sc3c(=O)n(-c4ccc(C#N)cc4)cnc3c12 [7K]	< 50		
O=c1c2sc3nccc(N4CCC4)c3c2ncn1-c1ccc(Cl)cc1 [28GJ]		50 to 150	
CC(=O)N1CCN(c2ccnc3sc4c(=O)n(C5CCCCC5)cnc4c23)CC1 [compound 62]	> 1000		
CN(C)c1ccnc2sc3c(=O)n(C4CCCCC4)cnc3c12 [7Q]	< 50		IC50 [3]: 0.35 nM
CN(C)c1ccnc2sc3c(=O)n(NC4CCCCC4)cnc3c12 [60G]	< 50		
CCOc1ccc(-n2cnc3c(sc4nccc(N(C)C)c43)c2=O)cc1 [7AE]	150 to 1000		
CN(C)c1ccnc2sc3c(=O)n(-c4ccc5c(c4)CCC5)cnc3c12 [7BI]	< 50		
C=CCN(C)c1ccnc2sc3c(=O)n(-c4ccc(OC)cc4)cnc3c12 [28EA]		< 50	
COc1ccc(-n2cnc3c(sc4ncc(C#N)c(N)c43)c2=O)cc1 [compound 194]		150 to 1000	
Cc1cccc(-n2cnc3c(sc4nccc(N(C)C)c43)c2=O)n1 [7CX]	50 to 150		
CN(C)c1ccnc2sc3c(=O)n(-c4csc5ccccc45)cnc3c12 [15AG]	< 50		
CC(O)CCNc1ccnc2sc3c(=O)n(-c4ccc(F)cc4)cnc3c12 (stereo not drawn) [28HN]		< 50	
Cc1nc2ccc(-n3cnc4c(sc5nccc(N(C)C)c54)c3=O)cc2o1 [7BT]	> 1000		
COc1ccnc2sc3c(=O)n(C4CCCCC4)cnc3c12 [25A]	150 to 1000		

Compound	IC50 [1] [nM]	IC50 [2] [nM]	also measured
Cc1cc(N(C)C)c2c(n1)sc1c(=O)n(-c3ccc(C(F)(F)F)cc3)cnc12 [7DM]	150 to 1000		
CNc1c(Br)cnc2sc3c(=O)n(-c4ccc(Cl)cc4)cnc3c12 [compound 188]		< 50	
COc1ccc(-n2cnc3c(sc4ncc(F)c(N(C)C)c43)c2=O)cc1 [compound 192]		< 50	
C=C(Cl)CNc1ccnc2sc3c(=O)n(-c4ccc(C)cc4)cnc3c12 [28EY]		< 50	
Cc1ccc(-n2cnc3c(sc4nccc(N5CC[C@@H](O)C5)c43)c2=O)cc1 [28CV]		> 1000	
Nc1c(Br)cnc2sc3c(=O)n(-c4ccc(Cl)cc4)cnc3c12 [compound 196]		< 50	
COc1ccnc2sc3c(=O)n(-c4ccc(Cl)cc4)cnc3c12 [28FS]		< 50	
CN(CC(O)CO)c1ccnc2sc3c(=O)n(-c4ccc(Cl)cc4)cnc3c12 (stereo not drawn) [28HQ]		50 to 150	
C#CCN(C)c1ccnc2sc3c(=O)n(-c4ccc(C)cc4)cnc3c12 [28AB]	< 50		
CCNc1ccnc2sc3c(=O)n(-c4cccc(F)c4)cnc3c12 [28CQ]		< 50	
COCCCNc1ccnc2sc3c(=O)n(-c4ccc(OC)cc4)cnc3c12 [28HL]		< 50	
COc1ccc(-n2cnc3c(sc4nccc(N(C)C)c43)c2=O)cc1C [7DJ]	< 50		
COc1ccc(-n2cnc3c(sc4nccc(NCCCO)c43)c2=O)cc1 [28HK]		< 50	
CCc1ccnc2sc3c(=O)n(-c4ccc(C)cc4)cnc3c12 [29G]		< 50	
CNc1ccnc2sc3c(=O)n(-c4ccc(OC)cc4C)cnc3c12 [28BN]		< 50	
CCNc1ccnc2sc3c(=O)n(C4CCCCC4)cnc3c12 [28P]	< 50		
CN(C)c1ccnc2sc3c(=O)n(N)cnc3c12 [60H]	> 1000		
O=c1c2sc3nccc(NC4CC4)c3c2ncn1-c1ccc(Br)cc1 [28GY]		< 50	
COc1ccccc1CCn1cnc2c(sc3nccc(N(C)C)c32)c1=O [28EM]		> 1000	
CCN(C)c1ccnc2sc3c(=O)n(-c4ccc5c(c4)OCCO5)cnc3c12 [28CG]		< 50	
CSc1ccc(-n2cnc3c(sc4nc(C)cc(N(C)C)c43)c2=O)cc1 [7DA]	150 to 1000		
COc1ccc(-n2cnc3c(sc4nccc(N(C)C)c43)c2=O)cc1 [7BG]	< 50		
C=Cc1ccc(-n2cnc3c(sc4nccc(N(C)C)c43)c2=O)cc1 [compound 136]	< 50		
CCN(C)c1ccnc2sc3c(=O)n(-c4ccc5occc5c4)cnc3c12 [28BU]		< 50	

Continued, in another order:

IC50 [1] [nM]	IC50 [2] [nM]	Compound	also measured
< 50		CCN(C)c1ncnc2sc3c(=O)n(-c4ccc(C)cc4)cnc3c12 [95H]	
	50 to 150	COc1ccc(-n2cnc3c(sc4ncnc(N)c43)c2=O)cc1 [95FU]	
	150 to 1000	O=c1c2sc3ncnc(NC4CCC4)c3c2ncn1-c1ccc(Cl)cc1 [95DD]	
	< 50	CN(c1ncnc2sc3c(=O)n(-c4ccc(Br)cc4)cnc3c12)C1CC1 [95DV]	IC50 [3]: 1.94 nM
	< 50	CN(C)c1ncnc2sc3c(=O)n(-c4ccc(Br)cc4F)cnc3c12 [95AR]	
	150 to 1000	O=c1c2sc3ncnc(NC4CCC4)c3c2ncn1-c1ccc(F)cc1 [95DF]	
	< 50	C=CCNc1ncnc2sc3c(=O)n(-c4ccc5scnc5c4)cnc3c12 [95BM]	
	> 1000	O=c1c2sc3ncnc(Nc4ccccc4)c3c2ncn1-c1ccc2ncsc2c1 [95GD]	
	< 50	CNc1ncnc2sc3c(=O)n(-c4ccc(OC)cc4F)cnc3c12 [95BI]	IC50 [3]: 28.3 nM
< 50		CCNc1ncnc2sc3c(=O)n(-c4ccc(SC)cc4)cnc3c12 [95AD]	
	150 to 1000	Cc1ccc(-n2cnc3c(sc4ncnc(NCC5CCCO5)c43)c2=O)cc1 (stereo not drawn) [95FQ]	
	> 1000	CN(C)c1cccc2sc3c(=O)n(-c4cc(Cl)cc(Cl)c4)cnc3c12 [103K]	
> 1000		CN(C)c1ccnc2sc3c(=O)n(NC(=O)C4CC4)c(C4CC4)nc3c12 [65C]	
	> 1000	COc1ccc(-n2cnc3c(sc4nccc(NC5CC5)c43)c2=O)cc1Cl [131K]	
	150 to 1000	O=c1c2sc3ncnc(NCC4CC4)c3c2ncn1-c1ccc(Br)cc1 [95DS]	
> 1000		Cc1ccc(-n2cnc3c(sc4nccc(OCCO)c43)c2=O)cc1 [66E]	
	< 50	CNc1ncnc2sc3c(=O)n(-c4ccc5scnc5c4)cnc3c12 [95BG]	
	50 to 150	O=c1c2sc3ncnc(NC4CC4)c3c2ncn1-c1ccc(C2CC2)cc1 [137C]	
> 1000		CCC(=O)Nc1ccnc2sc3c(=O)n(C4CCCCC4)cnc3c12 [73A]	
	< 50	C#CCOc1ccnc2sc3c(=O)n(-c4ccc(Cl)cc4)cnc3c12 [66G]	
	150 to 1000	CN(C)c1cccc2sc3c(=O)n(-c4cccc(F)c4)cnc3c12 [103M]	
	< 50	COCCNc1ncnc2sc3c(=O)n(-c4ccc(Cl)cc4)cnc3c12 [95DI]	
	150 to 1000	C#CCNc1ncnc2sc3c(=O)n(-c4ccc(OC)c(F)c4)cnc3c12 [95EK]	
